This is an account of results in patent US5594135A, “Tricyclic DNA gyrase inhibitors” (Hoffmann-La Roche Inc., priority 1994, dated 1997).

The test system of assay [1] is S. faecalis 6. Briefly: Antibacterial activity in vitro (agar dilution). The following applies: Enterococcus faecalis, agar dilution (MuellerHinton agar), inoculum 10^4 CFU/spot, read-out: minimum inhibitory concentration (MIC). The format is cell-based. In general terms: Agar dilution tests growth on a series of plates holding different concentrations.
The test system of assay [2] is E. coli B. Briefly: Antibacterial activity in vitro (agar dilution). Format: cell-based. As to conditions: Escherichia coli, agar dilution (MuellerHinton agar), inoculum 10^4 CFU/spot, read-out: minimum inhibitory concentration (MIC).
Assay [3] deals with S. aureus Smith. Briefly: Antibacterial activity in vitro (agar dilution). The format is cell-based. As to conditions: Staphylococcus aureus, agar dilution (MuellerHinton agar), inoculum 10^4 CFU/spot, read-out: minimum inhibitory concentration (MIC).
Assay [4] concerns P. aeruginosa 799/61. Briefly: Antibacterial activity in vitro (agar dilution). Format: cell-based. As to conditions: Pseudomonas aeruginosa, agar dilution (MuellerHinton agar), inoculum 10^4 CFU/spot, read-out: minimum inhibitory concentration (MIC).
Assay [5] concerns S. epidermidis 16-2. Briefly: Antibacterial activity in vitro (agar dilution). Format: cell-based. As to conditions: Staphylococcus epidermidis, 162, agar dilution (MuellerHinton agar), inoculum 10^4 CFU/spot, read-out: minimum inhibitory concentration (MIC).
Assay [6] has as its target T1, DNA gyrase (Escherichia coli, UniProt P0AES4+P0AES6).
T1 construct: supercoiling of relaxed pUC18
Briefly: Inhibition of DNA gyrase activity (DNA gyrase supercoiling assay, relaxed pUC18 plasmid as substrate). The format is biochemical, E. coli H560. On the procedure:
A. Inhibition of DNA gyrase activity
The inhibition of DNA gyrase activity was measured using a DNA gyrase supercoiling assay according to R. Otter & N. Cozzarelli: Methods in Enzymology, Vol. 100, pp 171-180 (1983). DNA gyrase was isolated from E. coli H560, and relaxed pUC18 plasmid was used as substrate. The activities as regards inhibition of DNA gyrase activity, expressed as maximum non-effective concentration of the test compound (MNC in μg/ml) are compiled in the following Table 1: […]

In assay [7] the test system is S. pyogenes 15. Briefly: Antibacterial activity in vitro (agar dilution). The format is cell-based. As to conditions: Streptococcus pyogenes, agar dilution (MuellerHinton agar), inoculum 10^4 CFU/spot, read-out: minimum inhibitory concentration (MIC).
Assay [8] concerns S. aureus 25923. Briefly: Antibacterial activity in vitro (agar dilution). The format is cell-based. The following applies: Staphylococcus aureus, agar dilution (MuellerHinton agar), inoculum 10^4 CFU/spot, read-out: minimum inhibitory concentration (MIC).

Values after ≈ are worked out from the molar mass of the structure shown.

T1 sequence (P0AES4 whole entry, one chain of several): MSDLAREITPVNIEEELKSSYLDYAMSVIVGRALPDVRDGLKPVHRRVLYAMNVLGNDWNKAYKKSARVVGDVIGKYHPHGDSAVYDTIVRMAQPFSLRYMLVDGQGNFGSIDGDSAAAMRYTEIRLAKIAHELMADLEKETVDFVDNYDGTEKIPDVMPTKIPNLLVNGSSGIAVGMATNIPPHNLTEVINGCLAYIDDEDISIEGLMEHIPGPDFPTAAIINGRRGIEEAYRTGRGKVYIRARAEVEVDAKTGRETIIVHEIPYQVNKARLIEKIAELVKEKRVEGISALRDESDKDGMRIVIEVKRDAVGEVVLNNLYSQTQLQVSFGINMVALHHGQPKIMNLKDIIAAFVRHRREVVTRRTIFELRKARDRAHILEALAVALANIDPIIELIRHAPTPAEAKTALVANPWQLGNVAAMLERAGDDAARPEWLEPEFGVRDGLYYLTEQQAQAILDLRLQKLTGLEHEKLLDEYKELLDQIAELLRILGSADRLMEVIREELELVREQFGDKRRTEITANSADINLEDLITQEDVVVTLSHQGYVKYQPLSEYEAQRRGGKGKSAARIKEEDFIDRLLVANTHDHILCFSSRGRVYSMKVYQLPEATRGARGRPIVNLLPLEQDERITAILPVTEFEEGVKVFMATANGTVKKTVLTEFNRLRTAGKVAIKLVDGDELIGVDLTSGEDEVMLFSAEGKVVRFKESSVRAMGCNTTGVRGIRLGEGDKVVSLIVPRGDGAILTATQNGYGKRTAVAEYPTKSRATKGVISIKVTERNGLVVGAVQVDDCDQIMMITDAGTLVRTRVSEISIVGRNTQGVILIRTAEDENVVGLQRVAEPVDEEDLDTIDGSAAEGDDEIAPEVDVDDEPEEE

For `COc1cc(O)c2c(c1C)C(=O)OCCCCC(=S)N[C@H](C(N)=O)CSC2` [Example 69, (R)-16-hydroxy-14-methoxy-13-methyl-12-oxo-6-thioxo-1,3,4,5,6,7,8,9,10,12-decahydro-11,2,5-benzoxathiaazacyclotetradecine-4-carboxylic acid amide], the MIC in assay [1] was 2 µg/mL (≈ 4.85 µM); in assay [2] it was more than 64 µg/mL; in assay [3], 2 µg/mL (≈ 4.85 µM); in assay [4] it was more than 64 µg/mL; in assay [5], 0.25 µg/mL (≈ 0.606 µM); in assay [7], 2 µg/mL (≈ 4.85 µM). For the same molecule, the MIC in assay [8] stood at 4 µg/mL (≈ 9.7 µM). The “maximum non-effective concentration of the test compound (MNC)” value (“maximum non-effective concentration” for short) in assay [6] was 0.04 µg/mL.

With `COC(=O)c1c(Br)c(OC)cc(O)c1CSC[C@H](NC(C)=S)c1nc(C)no1` [Example 71, (R)-2-bromo-5-hydroxy-3-methoxy-6-[2-(3-methyl-1,2,4-oxadiazol-5-yl)-2-thioacetylamino-ethylsulfanylmethyl]-benzoic acid methyl ester], the MIC in assay [1] is 4 µg/mL (≈ 8.16 µM); in assay [2], more than 64 µg/mL; in assay [3], 1 µg/mL (≈ 2.04 µM); in assay [4] it was 64 µg/mL (≈ 131 µM); in assay [5], 0.5 µg/mL (≈ 1.02 µM); in assay [7] it was 4 µg/mL (≈ 8.16 µM). Besides, the MIC in assay [8] was determined as 2 µg/mL (≈ 4.08 µM). In assay [6], the “maximum non-effective concentration” value was found to be 0.5 µg/mL.

In the case of `COC(=O)c1c(Cl)c(OC)cc(O)c1CSC[C@H](NC(C)=S)c1nc(C)no1` [Example 92, (R)-2-chloro-5-hydroxy-3-methoxy-6-[2-(3-methyl-1,2,4-oxadiazol-5-yl)-2-thioacetylamino-ethylsulfanylmethyl]-benzoic acid methyl ester], the MIC in assay [1] was 8 µg/mL (≈ 17.9 µM); in assay [2], more than 64 µg/mL; in assay [3] it was 2 µg/mL (≈ 4.48 µM); in assay [4], 64 µg/mL (≈ 144 µM); in assay [5] it was 1 µg/mL (≈ 2.24 µM); in assay [7], 8 µg/mL (≈ 17.9 µM). In addition, the MIC in assay [8] is 4 µg/mL (≈ 8.97 µM). Further, the “maximum non-effective concentration” value in assay [6] is 0.04 µg/mL.

As to `COc1cc(O)c(CSC[C@H](NC(C)=O)c2nc(C)no2)c(C#N)c1C` [Example 97, (R)-N-[2-(2-cyano-6-hydroxy-4-methoxy-3-methyl-benzylsulfanyl]-1-(3-methyl-1,2,4-oxadiazol-5-yl)-ethyl]-acetamide], the MIC in assay [1] was determined as 16 µg/mL (≈ 42.5 µM); in assay [2], 64 µg/mL (≈ 170 µM); in assay [3] it was 8 µg/mL (≈ 21.3 µM); in assay [4] it was 64 µg/mL (≈ 170 µM); in assay [5], 1 µg/mL (≈ 2.66 µM); in assay [7] it was 16 µg/mL (≈ 42.5 µM). Besides, the MIC in assay [8] stood at 16 µg/mL (≈ 42.5 µM). Besides, in assay [6], the “maximum non-effective concentration” value was determined as 0.4 µg/mL.
